Assay results taken from US9784732B2, “Acidic environment-detecting fluorescent probe” (THE UNIVERSITY OF TOKYO, priority 2011, dated 2017).
Read-outs that look alike come from different tables or passages of the source.

Tests used:
[1] = in ethanol; cited from earlier work
[2] = pH profile of fluorescent intensity (pKa) in phosphate buffer; type: physicochemical; settings: sodium phosphate buffer, from pH profile of fluorescent intensity
Description: (§1) In order to measure absorption and fluorescence spectra, a dye compound was dissolved in dimethyl sulfoxide (DMSO, fluorescent analysis-grade, Dojindo) to obtain 1 mM of standard solution. Using a UV-1650 PCUV/V spectrometer (Shimadzu) and an FP-6600 fluorescence spectrometer (JASCO), the optical properties of the dye compound in 200 mM of a sodium phosphate buffer solution containing 0.03% (v/v) DMSO as a cosolvent were measured. In order to determine fluorescence quantum yield (Φf1), the value (Φf1=0.65) of Rhodamine B in ethanol was used as a standard. The value was calculated according to the following formula. Φx/Φst=[Ast/Ax][nx^2/nst^2][Dx/Dst]
The absorption spectrum and fluorescence emission spectrum when solution pH was altered from 2.0 to 10.0 for Compound A obtained in Example 1 were obtained according to the measurement method described above.
Using a 100 mM phosphate buffer solution of Compound 1 (500 nM) obtained in Example 2, pH was altered from 4.39 to 9.24, and the fluorescence spectrum was measured.
A fitted curve for the pH profile was obtained according to the following formula.
Next, in order to investigate the reversibility of pH changes in Dye Conjugate 1, the fluorescent intensity ratio (fluorescent intensity at 540 nm/fluorescent intensity at 488 nm) was calculated for a case in which pH was cycled between 7.1 and 3.2 every 30 seconds.

[3] = test system: HER2; assay: High-throughput evaluation of HER2 downregulation; type: cell-based; settings: 17-AAG 10 μM with Compound 3 30 nm; SKOV3 cells expressing HER2-HaloTag; five hours; versus DMSO
Description: The pH-sensitive fluorescent probe Compound 3 and 17-AAG (Wako Pure Chemicals) were diluted with water. An equal amount of DMSO (Sigma-Aldrich) was added as a control for the 17-AAG. SKOV3 cells expressing the HER2-HaloTag were suspended in RPMI (Nacalai Tesque) containing 2% FBS (CCB), implanted in a 384-well imaging plate (PerkinElmer), and cultured overnight at 37° C. in a 5% CO2 atmosphere.
Compound 3 and 17-AAG were added to […] of a 384-well imaging plate implanted with SKOV3 cells expressing the HER2-HaloTag to respective final concentrations of 30 nm and 10 μM. DMSO alone was added to 32 wells instead of 17-AAG as a control. Fluorescence values at 580 nm induced by 535 excitation were measured using a plate reader, after which culturing was performed at 37° C. in a 5% CO2 atmosphere for five hours, and fluorescence values were again measured using the plate reader. […] In this way, it is possible to simply evaluate downregulation of the cancer-related receptor HER2 via fluorescence values.

[4] = Optical properties and fluorescence quantum yield; type: physicochemical; settings: for Maximum Absorption Wavelength (nm) / Maximum Emission Wavelength (nm): 200 mM sodium phosphate buffer, 0.03% (v/v) DMSO
Description: as §1
The absorption spectrum and fluorescence emission spectrum when solution pH was altered from 2.0 to 10.0 for Compound A obtained in Example 1 were obtained according to the measurement method described above. Absorption spectra are shown in FIG. 1-1, fluorescence emission spectra in FIG. 1-2, and a pH profile showing pH-induced changes in fluorescent intensity in FIG. 1-3. The maximum absorption wavelength, maximum emission wavelength, fluorescent quantum yield, and pKa when pH is changed from 10.0 to 4.0 are shown in table 1.

SMILES: CCN(CC)c1ccc2c(-c3ccccc3C(=O)O)c3ccc(=[N+](CC)CC)cc-3oc2c1.[Cl-] [Rhodamine B]
- Fluorescence Quantum Yield of the standard [1]: 0.65

SMILES: CN1CCN(c2ccc3c(-c4ccccc4C(=O)N(C)CC(=O)NCCOCCOCCOCCC(=O)[O-])c4ccc(=[N+]5CCN(C)CC5)cc-4oc3c2)CC1 [Compound D, 2-methyl-1-(2-(3-(4-methylpiperazine-1-ium-1-ylidene)-6-(4-methylpiperazine-1-yl)-3H-xanthene-9-yl)phenyl)-1,4-dioxo-8,11,14-trioxa-2,5-diazaheptadecane-17-oate]
- pKa ([2]; read-out: pKa (higher, pKa2)): 6.6
- pKa ([2]; read-out: pKa (lower, pKa1)): 5.3

SMILES: C=CCNC1=C2C[C@@H](C)C[C@H](OC)[C@H](O)[C@@H](C)/C=C(\C)[C@H](OC(N)=O)[C@@H](OC)/C=C\C=C(/C)C(=O)NC(=CC1=O)C2=O [Compound 17-AAG]
- Difference in fluorescence values before and after culturing (F5−F0) [3]: large increase in fluorescence values

SMILES: CN1CCN(c2ccc3c(-c4ccccc4C(=O)O)c4ccc(=[N+]5CCN(C)CC5)cc-4oc3c2)CC1.[Cl-] [Compound A, 1-(9-(2-carboxyphenyl)-6-(4-methylpiperazine-1-yl)-3H-xanthene-3-ylidene)-4-methylpiperazine-1-ium chloride]
- Shift of maximum absorption wavelength to shorter wavelength ([4]; deprotonated type (pH 10.0) to protonated type (pH 4.0)): 20 nm
- Maximum Absorption Wavelength (nm) ([4]; pH 4.0): 527 nm
- Maximum Emission Wavelength (nm) ([4]; pH 4.0): 554 nm
- Fluorescence Quantum Yield ([4]; pH 10.0 (deprotonated type), standard Rhodamine B in ethanol): 0.024
- Maximum Absorption Wavelength (nm) ([4]; pH 10.0): 547 nm
- Maximum Emission Wavelength (nm) ([4]; pH 10.0): 575 nm
- pKa ([2]; read-out: pKa (higher, pKa2)): 6.8
- pKa ([2]; read-out: pKa (lower, pKa1)): 5.4
